Where a SMILES comes first, the peptide text is derived from it.
How the values were obtained:
[1] = target: Signal peptidase I (Escherichia coli K-12) (UniProt P00803); test: Inhibitory activity against Escherichia coli leader peptidase at a concentration of 100 uM
Signal peptidase I = Signal peptidase I (Escherichia coli K-12, UniProt P00803); test: Inhibitory activity against Escherichia coli leader peptidase using substrate A; conditions: read-out: I50
[2] = Inhibitory activity against Escherichia coli leader peptidase using substrate A.; conditions: read-out: I50
[3] = Inhibitory activity against Escherichia coli leader peptidase using substrate B; conditions: read-out: I50
Escherichia coli [4] = conditions: 100 uM
Escherichia coli [5] = test: Compound was evaluated for Michaelis-Menten constant (Km)

Chain of Signal peptidase I (P00803 whole entry): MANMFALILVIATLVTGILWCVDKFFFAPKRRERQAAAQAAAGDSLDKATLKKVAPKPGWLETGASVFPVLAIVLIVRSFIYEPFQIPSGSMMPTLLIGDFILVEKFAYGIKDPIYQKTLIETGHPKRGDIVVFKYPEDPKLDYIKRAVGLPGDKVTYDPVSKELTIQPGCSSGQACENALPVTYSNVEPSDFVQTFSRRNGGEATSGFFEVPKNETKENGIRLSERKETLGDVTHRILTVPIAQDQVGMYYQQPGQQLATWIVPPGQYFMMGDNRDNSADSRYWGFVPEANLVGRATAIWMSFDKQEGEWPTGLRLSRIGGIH
Chain of Signal peptidase I (Escherichia coli K-12) (P00803 whole entry): as above

inhibition [1] | IC50 (Signal peptidase I) | SMILES | also measured
100% |  | C=CCOC(=O)C1=CS[C@H]2[C@@H]([C@@H](C)OC(C)=O)C(=O)N12 [listing 1 of 3 here] | 
 | 1.8 µM | C=CCOC(=O)C1=CS[C@H]2[C@@H]([C@@H](C)OC(C)=O)C(=O)N12 [listing 2 of 3 here] | 
20% |  | C=CCOC(=O)C1=CS[C@@H]2[C@H]([C@H](C)OC(C)=O)C(=O)N12 | 
100% | 21 µM | CCCCCOC(=O)C1=CSC2CC(=O)N12 (stereo not drawn) | 
93% | 10 µM | C=CCOC(=O)C1=CSC2CC(=O)N12 (stereo not drawn) | 
 | 0.85 µM | C=CCOC(=O)C1=CS[C@H]2[C@@H]([C@@H](C)OC(C)=O)C(=O)N12 [listing 3 of 3 here] | IC50 [3]: 0.07 µM
100% | 0.92 µM | C=CCOC(=O)C1=CS[C@H]2[C@@H]([C@@H](C)O)C(=O)N12 | IC50 [3]: 0.18 µM
64% |  | C=CCOC(=O)C1=CS[C@@H]2[C@@H]([C@@H](C)OC(C)=O)C(=O)N12 | 
19% |  | C=CCOC(=O)C1=CS[C@@H]2[C@@H](CC)C(=O)N12 | 
84% | 20 µM | C=CCOC(=O)C1=CS[C@H]2[C@@H](CC)C(=O)N12 | 
0% |  | C=CCOC(=O)C1=CS[C@H]2[C@@H]([C@H](C)OC(C)=O)C(=O)N12 | 
0% |  | C=CCOC(=O)C1=CS[C@@H]2[C@@H]([C@H](C)OC(C)=O)C(=O)N12 | 

Continued, molecule first:

SMILES | inhibition [1] | IC50 (Signal peptidase I) | also measured
O=C(C1=CSC2CC(=O)N12)N1CCOCC1 (stereo not drawn) | 79% | 115 µM | 
O=C(OCc1ccccc1)C1=CS[C@H]2CC(=O)N12 | 100% | 3 µM | 
COC(=O)C1=CSC2CC(=O)N12 (stereo not drawn) | 100% | 4 µM | 
O=C(C1=CSC2CC(=O)N12)N1CCCC1 (stereo not drawn) | 93% |  | IC50 [2]: 10 µM
COc1ccc(NC(=O)C2=CSC3CC(=O)N23)cc1 (stereo not drawn) | 77% | 87 µM | 
COCOC(=O)C1=CSC2CC(=O)N12 (stereo not drawn) | 100% | 6 µM | 
O=C(NCc1ccccc1)C1=CSC2CC(=O)N12 (stereo not drawn) | 34% |  | 
CCCCCCCCCCCCCCCCOC(=O)C1=CSC2CC(=O)N12 (stereo not drawn) | 0% |  | 
COC(=O)c1ccc(COC(=O)C2=CSC3CC(=O)N23)cc1 (stereo not drawn) | 100% | 3 µM | 
CC(C)(C)NC(=O)C1=CSC2CC(=O)N12 (stereo not drawn) | 0% |  | 
O=C(OCc1ccccc1)C1=CS[C@@H]2CC(=O)N12 | 0% |  | 
O=C(OCc1ccc([N+](=O)[O-])cc1)C1=CSC2CC(=O)N12 (stereo not drawn) | 85% | 50 µM | 
CN(Cc1ccccc1)C(=O)C1=CSC2CC(=O)N12 (stereo not drawn) | 88% | 50 µM | 
O=C(OCc1ccccc1)C1=CSC2CC(=O)N12 (stereo not drawn) |  | 10 µM | inhibition (Escherichia coli [4]): 100%
CC[C@H](C)[C@H](NC(=O)[C@H](CCCCN)NC(=O)[C@H](C)NC(=O)[C@H](CC(C)C)NC(=O)[C@H](C)NC(=O)[C@H](CO)NC(=O)[C@H](C)NC(=O)[C@H](CO)NC(=O)[C@@H](N)Cc1ccccc1)C(N)=O (H-FSASALAKI-NH2) |  |  | Km (Escherichia coli [5]): 1000 µM
COC(=O)c1cccc(COC(=O)C2=CSC3CC(=O)N23)c1 (stereo not drawn) | 72% | 8 µM | 
COc1ccc(COC(=O)C2=CSC3CC(=O)N23)cc1 (stereo not drawn) | 100% | 7 µM | 
O=C(OCCCCc1ccccc1)C1=CSC2CC(=O)N12 (stereo not drawn) | 83% | 13 µM | 
COc1ccc(COC(=O)C2=CS[C@@H]3CC(=O)N23)cc1 | 0% |  | 
CC[C@H](C)[C@H](NC(=O)[C@H](CCCCN)NC(=O)[C@H](C)NC(=O)[C@H](CC(C)C)NC(=O)[C@H](C)NC(=O)[C@H](CO)NC(=O)[C@H](C)NC(=O)[C@H](CO)NC(=O)[C@@H](N)Cc1c[nH]c2ccccc12)C(N)=O (H-WSASALAKI-NH2) |  |  | Km (Escherichia coli [5]): 300 µM
O=C(O)C1=CSC2CC(=O)N12 (stereo not drawn) | 0% | 600 µM | 
O=C(OCc1ccc(C(=O)O)cc1)C1=CSC2CC(=O)N12 (stereo not drawn) | 31% |  | 
CCN(CC)C(=O)C1=CSC2CC(=O)N12 (stereo not drawn) | 86% | 58 µM | 
O=C(Nc1ccccc1)C1=CSC2CC(=O)N12 (stereo not drawn) | 86% | 58 µM | 

From ChEMBL document CHEMBL1150541, “Penem inhibitors of bacterial signal peptidase” (Bioorg Med Chem Lett, 1995)
